US20260227412A1, “USE OF IFN-I ACTIVITY AS A BIOMARKER FOR TLR INHIBITOR TREATMENT” (MERCK PATENT GMBH, priority 2022, published 2026)

Assays:
[1] = test system: patients hospitalized with COVID-19 pneumonia; test: Exploratory phase II clinical study of enpatoran in patients hospitalized with COVID-19 pneumonia (NCT04448756), time to recovery; type: in vivo, human
Experimental: An exploratory phase II clinical study in patients hospitalized with COVID-19 pneumonia was conducted to inter alia assess whether the TLR inhibitor enpatoran improves time to recovery (NCT04448756).
Statistical testing was considered exploratory, and results are presented with no adjustment of type I error for multiplicity. Time to recovery was defined as time from Day 1 to first occurrence of WHO 9-point ordinal scale of ≤3 and was estimated via Kaplan-Meier (KM) analysis, presented with two-sided 95% confidence intervals (CI). The effect of each dose level compared with placebo was evaluated using a stratified log-rank test.
Blood was collected directly in PAXgene RNA tubes from patients at baseline prior to treatment for measurement of gene expression. IFN-I activity was measured by DxTerity Diagnostics (Rancho Dominguez, California, USA), using the IFN-1 test, a commercially available chemical ligation-dependent probe amplification and gene expression test with relative quantitative analysis by capillary electrophoresis. Sample testing and analysis was performed as previously described (Kim et al., J Mol Diagn. 2015 March;17 (2): 118-27). The IFN-1 test measures the expression levels of four IFN response genes (HERC5, IFI27, IFIT1 and RSAD2), i.e. the Dx-4 IFN-I signature, relative to the expression levels of three housekeeping normalizer genes (ACTB, GAPDH and TFRC). Normalized expression values of each respective response gene were calculated per the following function: Normalized ExpressionGene i=Log2(HeightGene i)−Mean (Log2 (Normaliser Gene Height)). The IFN-I signature score was calculated by averaging the normalized expression values of the four response genes. The cut-off between high IFN-I signature and low IFN-I signature scores (−0.5), was set to the mean±2 SDs (95th percentile) of IFN-I signature scores from 281 healthy human donors. This cut-off falls within the trough of the observed bimodal distribution of IFN-I signature scores for cohorts of SLE patients.
149 patients received either placebo (n=49), or enpatoran 50 mg (n=54)0r 100 mg (n=46) BID. Mean IFN-I signature scores (50 mg BID-0.84; 100 mg BID-0.74; placebo-0.91) and the proportion of patients with high IFN-I signature scores at baseline (50 mg BID 35%; 100 mg BID 43%; placebo 35%) were reasonably consistent across treatment groups, as reflected by Table 2: […]

[2] = test system: TLR7/8 activation in human PBMCs by patient-derived immune complexes; test: IFN-α production in healthy donor PBMCs stimulated with patient-derived immune complexes (AlphaLISA); type: cell-based; details: PBMCs pre-treated with 1 μM enpatoran for 30 minutes, immune complex 24 hours
Text: Blood sample collection: Blood samples were collected from subjects with lupus nephritis (LN), systemic lupus erythematosus (SLE), dermatomyositis (DM), polymyositis (PM), patients with inclusion body myositis (IBM) and healthy controls (HC). Blood plasma was isolated and frozen. Later, immunoglobulin G (IgG) was purified using protein A resin and the protein concentration determined.
Immune complex formation and peripheral blood mononuclear cell (PBMC) stimulation: To generate necrotic cell lysates, human embryonic kidney 293 cells were suspended at a concentration of 50 x10^6 cells/mL in phosphate buffered saline (PBS; Gibco, Grand Island, NY). The cells were frozen at −80° C. for 10 minutes followed by thawing at 37° C. Four freeze/thaw cycles were performed. The lysate was centrifuged at 400 g for 5 minutes to separate non-lysed cells and the supernatant was collected as necrotic cell lysate.
PBMCs were isolated from leukopacks collected from healthy donors (New York Blood Center, New York, NY) in sodium heparin tubes using Ficoll-Paque Plus (Cytiva Life Sciences, Uppsala, Sweeden). The cells were plated in 96-well U-bottom plates (4 x10^5 cells/well) in RPMI 1640 Medium (Gibco, Grand Island, NY) supplemented with 10% fetal bovine serum (FBS; Corning, Woodland, CA). […] The supernatants were collected and cytokine production was measured by AlphaLISA (PerkinElmer, Waltham, MA).

[3] = subgroup with high IFN-I signature scores at baseline, 50 mg BID
[4] = subgroup with high IFN-I signature scores at baseline, 100 mg BID

## N#Cc1ccc(N2C[C@H](N)C[C@H](C(F)(F)F)C2)c2cccnc12 [enpatoran, 5-[(3R,5S)-3-amino-5-(trifluoromethyl)piperidin-1-yl]quinoline-8-carbonitrile]
[1]; [3]
  KM-estimated cumulative recovery rate up to Day 14: 78.6%
  recovery rate at Day 28: 73.3%
[1]; [4]
  KM-estimated cumulative recovery rate up to Day 14: 88.2%
  recovery rate at Day 28: 88.2%
[1]; subgroup with low IFN-I signature scores at baseline, 50 mg BID
  recovery rate at Day 28: 100%
[1]; subgroup with low IFN-I signature scores at baseline, 100 mg BID
  recovery rate at Day 28: 91.3%
[1]; unstratified patient populations, enpatoran 50 mg or 100 mg BID vs placebo
  primary efficacy endpoint of the time to recovery from Day 1 through Day 28: not met
[1]; unstratified, Day 1 through Day 28, 50 mg BID
  recovery rate: 88.9%
[1]; unstratified, Day 1 through Day 28, 100 mg BID
  recovery rate: 91.3%
[1]; unstratified, range across groups (placebo, 50 mg BID, 100 mg BID)
  median time to recovery: 3.4 to 3.9 days
[2]
  IFN-α production: completely inhibited
